According to ChEMBL document CHEMBL5512696, “Discovery of a Novel ASM Direct Inhibitor with a 1,5-Diphenyl-pyrazole Scaffold and Its Antidepressant Mechanism of Action” (J Med Chem, 2024):
pIC50: −log10 of the molar value.

Molecular target: T1, Sphingomyelin phosphodiesterase (Homo sapiens, UniProt P17405)
T1 sequence (P17405 whole entry): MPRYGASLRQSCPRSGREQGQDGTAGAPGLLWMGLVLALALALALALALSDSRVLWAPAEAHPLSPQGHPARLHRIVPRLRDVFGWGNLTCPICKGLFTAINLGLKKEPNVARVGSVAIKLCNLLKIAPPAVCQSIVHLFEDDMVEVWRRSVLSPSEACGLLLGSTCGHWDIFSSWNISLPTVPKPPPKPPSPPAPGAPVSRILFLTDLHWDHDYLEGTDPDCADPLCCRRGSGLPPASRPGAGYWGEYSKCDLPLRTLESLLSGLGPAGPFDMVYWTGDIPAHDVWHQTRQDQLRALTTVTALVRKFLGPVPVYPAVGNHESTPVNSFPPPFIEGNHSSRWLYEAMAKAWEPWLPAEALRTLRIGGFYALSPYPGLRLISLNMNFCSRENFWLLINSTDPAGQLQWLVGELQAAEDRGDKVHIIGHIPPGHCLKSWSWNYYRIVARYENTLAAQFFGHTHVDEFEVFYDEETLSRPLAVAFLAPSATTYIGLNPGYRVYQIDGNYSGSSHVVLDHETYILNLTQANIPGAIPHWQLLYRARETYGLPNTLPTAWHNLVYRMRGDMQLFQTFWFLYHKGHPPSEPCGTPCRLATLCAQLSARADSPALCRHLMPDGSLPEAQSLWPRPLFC
Test: Inhibition of human recombinant ASM (His62 to Pro628 residues) using HMU-PC as substrate incubated for 2 hrs by fluorescence based analysis

pIC50: 5.92
Structure (SMILES): CCCCCCCCCCOc1cc(C(=O)NO)ccc1OC
